These results are taken from BindingDB's records for patent US20230286970 (Italfarmaco, 2023).

What all share (assay): Enzymatic Activity Assay
One test addresses T1, Histone deacetylase 11 (Homo sapiens, UniProt Q96DB2).
T1 sequence (Q96DB2 whole entry): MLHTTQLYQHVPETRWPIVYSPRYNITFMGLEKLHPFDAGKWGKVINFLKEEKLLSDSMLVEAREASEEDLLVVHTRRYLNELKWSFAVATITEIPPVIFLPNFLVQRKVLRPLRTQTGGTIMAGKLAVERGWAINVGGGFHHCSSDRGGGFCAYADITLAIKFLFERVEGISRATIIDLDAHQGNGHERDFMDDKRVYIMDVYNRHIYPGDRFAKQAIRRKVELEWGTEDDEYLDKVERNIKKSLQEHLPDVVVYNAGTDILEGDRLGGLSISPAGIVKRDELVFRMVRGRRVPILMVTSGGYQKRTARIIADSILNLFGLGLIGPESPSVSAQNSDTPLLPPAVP
As to the method: (§1) After a period of preincubation (incubation times and temperatures vary for different isoforms and are shown in table 1) 25 μL of solution containing the substrate were added. […] Enzymatic activity on recombinant human HDAC6 and HDAC1 was evaluated (Table 2) for each synthesized compound.

The target in another test is Histone deacetylase 2 (Homo sapiens, UniProt Q92769). The procedure:
as §1

The target of a further test is Histone deacetylase 3 (Homo sapiens, UniProt O15379). As to the method:
as §1

Another test addresses Histone deacetylase 5 (Homo sapiens, UniProt Q9UQL6). The procedure: as §1
A further test addresses T2, Histone deacetylase 8 (Homo sapiens, UniProt Q9BY41).
T2 sequence (Q9BY41 whole entry): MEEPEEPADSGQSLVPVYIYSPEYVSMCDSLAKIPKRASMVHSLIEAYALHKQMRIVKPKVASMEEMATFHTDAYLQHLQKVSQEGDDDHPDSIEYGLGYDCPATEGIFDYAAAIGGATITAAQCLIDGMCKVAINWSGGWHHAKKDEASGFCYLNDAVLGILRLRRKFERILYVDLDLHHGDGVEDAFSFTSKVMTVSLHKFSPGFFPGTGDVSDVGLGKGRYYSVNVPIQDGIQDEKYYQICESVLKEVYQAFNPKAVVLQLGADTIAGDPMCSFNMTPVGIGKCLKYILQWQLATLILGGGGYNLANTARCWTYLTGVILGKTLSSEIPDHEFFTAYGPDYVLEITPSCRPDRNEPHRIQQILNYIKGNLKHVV
As to the method: as §1

Molecules are shown by their SMILES.

Histone deacetylase 3, sequence (O15379 whole entry): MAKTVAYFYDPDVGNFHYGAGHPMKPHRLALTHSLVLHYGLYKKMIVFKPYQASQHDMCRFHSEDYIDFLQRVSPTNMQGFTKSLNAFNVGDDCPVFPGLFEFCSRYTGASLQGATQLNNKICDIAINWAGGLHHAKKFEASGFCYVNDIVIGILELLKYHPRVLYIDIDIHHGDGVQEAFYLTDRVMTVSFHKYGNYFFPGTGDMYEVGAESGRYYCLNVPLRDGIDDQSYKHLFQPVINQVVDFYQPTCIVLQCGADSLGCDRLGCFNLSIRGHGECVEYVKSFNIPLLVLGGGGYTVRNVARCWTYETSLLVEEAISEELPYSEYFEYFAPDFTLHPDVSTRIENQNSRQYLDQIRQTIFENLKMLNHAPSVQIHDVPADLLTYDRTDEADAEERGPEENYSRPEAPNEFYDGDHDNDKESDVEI
Histone deacetylase 2, sequence (Q92769 whole entry): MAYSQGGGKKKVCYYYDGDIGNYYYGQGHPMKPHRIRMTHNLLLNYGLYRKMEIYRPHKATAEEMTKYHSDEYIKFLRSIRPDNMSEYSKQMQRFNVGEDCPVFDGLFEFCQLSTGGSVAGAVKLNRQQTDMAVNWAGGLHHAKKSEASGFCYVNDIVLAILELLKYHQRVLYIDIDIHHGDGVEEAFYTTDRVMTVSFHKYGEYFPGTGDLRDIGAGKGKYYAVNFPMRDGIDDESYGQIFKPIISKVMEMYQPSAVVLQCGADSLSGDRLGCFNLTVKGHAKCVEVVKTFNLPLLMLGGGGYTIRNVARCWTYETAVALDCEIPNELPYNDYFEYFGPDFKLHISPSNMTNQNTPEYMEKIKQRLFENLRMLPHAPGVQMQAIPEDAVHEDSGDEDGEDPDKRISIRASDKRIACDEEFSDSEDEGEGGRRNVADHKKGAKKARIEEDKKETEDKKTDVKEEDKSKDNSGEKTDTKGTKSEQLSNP
Histone deacetylase 5, sequence (Q9UQL6 whole entry): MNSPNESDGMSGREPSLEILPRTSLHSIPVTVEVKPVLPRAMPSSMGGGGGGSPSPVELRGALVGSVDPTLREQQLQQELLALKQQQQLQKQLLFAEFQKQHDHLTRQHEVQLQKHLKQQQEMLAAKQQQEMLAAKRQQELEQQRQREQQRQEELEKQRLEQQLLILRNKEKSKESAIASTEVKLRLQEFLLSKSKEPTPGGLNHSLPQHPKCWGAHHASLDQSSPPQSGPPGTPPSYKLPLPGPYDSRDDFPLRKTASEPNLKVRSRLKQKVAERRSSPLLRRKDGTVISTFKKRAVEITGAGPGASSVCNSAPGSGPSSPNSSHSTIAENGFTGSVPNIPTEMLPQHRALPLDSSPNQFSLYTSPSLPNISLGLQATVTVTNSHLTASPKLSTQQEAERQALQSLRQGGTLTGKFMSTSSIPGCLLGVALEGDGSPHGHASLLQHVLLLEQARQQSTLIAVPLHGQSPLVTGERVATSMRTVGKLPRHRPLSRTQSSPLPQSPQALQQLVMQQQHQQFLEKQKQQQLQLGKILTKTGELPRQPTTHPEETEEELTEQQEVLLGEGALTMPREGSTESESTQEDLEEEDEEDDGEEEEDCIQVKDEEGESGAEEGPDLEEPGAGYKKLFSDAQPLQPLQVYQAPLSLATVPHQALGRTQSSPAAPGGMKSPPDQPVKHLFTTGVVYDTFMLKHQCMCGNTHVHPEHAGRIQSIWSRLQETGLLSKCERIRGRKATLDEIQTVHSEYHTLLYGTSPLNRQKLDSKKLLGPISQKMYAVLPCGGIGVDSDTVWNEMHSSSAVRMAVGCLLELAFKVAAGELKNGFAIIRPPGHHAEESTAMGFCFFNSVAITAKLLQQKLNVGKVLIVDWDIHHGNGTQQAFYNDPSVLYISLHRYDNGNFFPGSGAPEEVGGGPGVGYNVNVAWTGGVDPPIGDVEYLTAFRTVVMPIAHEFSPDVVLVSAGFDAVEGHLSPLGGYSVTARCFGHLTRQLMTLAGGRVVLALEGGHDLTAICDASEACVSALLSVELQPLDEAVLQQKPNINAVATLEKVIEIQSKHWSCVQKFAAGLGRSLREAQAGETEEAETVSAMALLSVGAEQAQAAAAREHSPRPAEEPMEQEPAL

As to `Nc1nc2ccc(-c3cn(Cc4ccc(-c5nnc(C(F)F)o5)cc4)nn3)cc2s1` [US20230286970, Compound 14], the IC50 on Histone deacetylase 11 is greater than 30 µM; at Histone deacetylase 2 it was greater than 30 µM; on Histone deacetylase 3 it was greater than 30 µM; on Histone deacetylase 5, greater than 30 µM; at Histone deacetylase 8, greater than 200 µM.

`Nc1ccc(-c2cn(Cc3ccc(-c4nnc(C(F)F)o4)c(F)c3)nn2)cn1` [US20230286970, Compound 15]: the IC50 at Histone deacetylase 11 is greater than 30 µM; on Histone deacetylase 2 it was greater than 30 µM; against Histone deacetylase 3, greater than 30 µM; on Histone deacetylase 5 it was greater than 30 µM; on Histone deacetylase 8, greater than 200 µM.
